{"source": "ChEMBL document CHEMBL1177792", "about": "“Pre-clinical characterization of aryloxypyridine amides as histamine H3 receptor antagonists: identification of candidates for clinical development” (Bioorg Med Chem Lett, 2010)", "key": {"[1]": {"assay": "Metabolic stability in rat liver microsomes assessed as compound remaining after 30 mins", "assay_type": "ADME, Microsome", "conditions": "read-out: Stability"}, "[2]": {"assay": "Metabolic stability in human liver microsomes assessed as compound remaining after 30 mins", "assay_type": "ADME, Microsome", "conditions": "read-out: Stability"}, "Rattus norvegicus [3]": {"test_system": "Rattus norvegicus", "assay": "Ex vivo receptor occupancy of histamine H3 receptor in Wistar rat brain at 10 mg/kg, po after 1 hr by autoradiography", "assay_type": "functional"}, "[4]": {"assay": "Drug level in Wistar rat brain at 10 mg/kg, po after 1 hr", "assay_type": "ADME, organism-based", "design": "dose 10 mg/kg, route oral", "conditions": "read-out: Drug uptake"}, "[5]": {"assay": "Plasma concentration in Wistar rat at 10 mg/kg, po after 1 hr", "assay_type": "ADME, organism-based", "design": "dose 10 mg/kg, route oral", "conditions": "read-out: Drug uptake"}, "[6]": {"assay": "Clearance in Sprague-Dawley rat at 1 mg/kg, iv and 10 mg/kg, po", "assay_type": "ADME, organism-based", "conditions": "in vivo"}, "[7]": {"assay": "Volume of distribution at steady state in Sprague-Dawley rat at 1 mg/kg, iv and 10 mg/kg, po", "assay_type": "ADME, organism-based", "conditions": "in vivo, read-out: Vdss"}, "[8]": {"assay": "Half life in Sprague-Dawley rat at 1 mg/kg, iv and 10 mg/kg, po", "assay_type": "ADME, organism-based", "conditions": "in vivo"}, "[9]": {"assay": "Bioavailability in Sprague-Dawley rat at 1 mg/kg, iv and 10 mg/kg, po", "assay_type": "ADME, organism-based", "conditions": "in vivo"}, "[10]": {"assay": "Clearance in Beagle dog at 1 mg/kg, iv and 5 mg/kg, po", "assay_type": "ADME, organism-based, Canis lupus familiaris", "conditions": "in vivo"}, "[11]": {"assay": "Volume of distribution at steady state in Beagle dog at 1 mg/kg, iv and 5 mg/kg, po", "assay_type": "ADME, organism-based, Canis lupus familiaris", "conditions": "in vivo, read-out: Vdss"}, "[12]": {"assay": "Half life in Beagle dog at 1 mg/kg, iv and 5 mg/kg, po", "assay_type": "ADME, organism-based, Canis lupus familiaris", "conditions": "in vivo"}, "[13]": {"assay": "Bioavailability in Beagle dog at 1 mg/kg, iv and 5 mg/kg, po", "assay_type": "ADME, organism-based, Canis lupus familiaris", "conditions": "in vivo"}, "[14]": {"assay": "Clearance in BALB/c mouse at 1 mg/kg, iv and 10 mg/kg, po", "assay_type": "ADME, organism-based", "conditions": "in vivo"}, "[15]": {"assay": "Volume of distribution at steady state in BALB/c mouse at 1 mg/kg, iv and 10 mg/kg, po", "assay_type": "ADME, organism-based", "conditions": "in vivo, read-out: Vdss"}, "[16]": {"assay": "Half life in BALB/c mouse at 1 mg/kg, iv and 10 mg/kg, po", "assay_type": "ADME, organism-based", "conditions": "in vivo"}, "[17]": {"assay": "Bioavailability in BALB/c mouse at 1 mg/kg, iv and 10 mg/kg, po", "assay_type": "ADME, organism-based", "conditions": "in vivo"}, "[18]": {"biological_target": "T1, Voltage-gated inwardly rectifying potassium channel KCNH2 (Homo sapiens, UniProt Q12809)", "T1 sequence (Q12809 whole entry)": "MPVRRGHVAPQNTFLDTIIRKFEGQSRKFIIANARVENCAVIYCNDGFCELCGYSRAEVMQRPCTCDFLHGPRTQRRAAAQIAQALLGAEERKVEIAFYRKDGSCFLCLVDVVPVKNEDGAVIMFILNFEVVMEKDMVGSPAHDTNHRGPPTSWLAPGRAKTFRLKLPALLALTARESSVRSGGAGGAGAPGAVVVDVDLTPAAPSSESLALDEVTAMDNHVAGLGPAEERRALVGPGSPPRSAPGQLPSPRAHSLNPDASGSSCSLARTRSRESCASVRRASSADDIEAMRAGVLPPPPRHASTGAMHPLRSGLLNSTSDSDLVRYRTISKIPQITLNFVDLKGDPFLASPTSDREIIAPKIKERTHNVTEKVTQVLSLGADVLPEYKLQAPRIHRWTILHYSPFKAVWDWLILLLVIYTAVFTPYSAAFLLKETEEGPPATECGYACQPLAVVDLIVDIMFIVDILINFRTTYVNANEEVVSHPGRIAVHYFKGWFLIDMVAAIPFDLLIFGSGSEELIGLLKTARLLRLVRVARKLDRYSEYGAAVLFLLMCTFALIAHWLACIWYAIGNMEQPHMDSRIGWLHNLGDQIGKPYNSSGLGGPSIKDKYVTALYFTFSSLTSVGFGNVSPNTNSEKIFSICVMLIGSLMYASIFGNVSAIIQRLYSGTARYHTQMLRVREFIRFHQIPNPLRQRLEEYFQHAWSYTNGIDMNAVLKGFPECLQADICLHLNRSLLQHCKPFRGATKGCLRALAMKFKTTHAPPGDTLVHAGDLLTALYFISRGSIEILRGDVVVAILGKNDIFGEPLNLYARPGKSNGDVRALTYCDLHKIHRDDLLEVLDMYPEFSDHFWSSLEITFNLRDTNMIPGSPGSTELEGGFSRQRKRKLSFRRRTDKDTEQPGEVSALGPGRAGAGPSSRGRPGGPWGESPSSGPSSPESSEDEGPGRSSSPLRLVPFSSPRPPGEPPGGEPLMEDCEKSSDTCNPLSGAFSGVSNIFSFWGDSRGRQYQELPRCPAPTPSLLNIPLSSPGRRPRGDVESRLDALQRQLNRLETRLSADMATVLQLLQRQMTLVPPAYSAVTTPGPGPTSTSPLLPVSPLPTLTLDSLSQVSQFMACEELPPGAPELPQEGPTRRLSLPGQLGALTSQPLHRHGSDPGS", "assay": "Displacement of radiolabeled astemizole from human ERG"}, "hERG (KCNH2)": {"biological_target": "hERG (KCNH2) (Homo sapiens, UniProt Q12809)", "sequence (Q12809 whole entry)": "as above", "assay": "Displacement of radiolabeled astemizole from human ERG at 10 uM", "conditions": "probe radiolabeled astemizole"}, "[19]": {"biological_target": "T1, Voltage-gated inwardly rectifying potassium channel KCNH2", "assay": "Inhibition of human ERG by patch clamp technique"}, "[20]": {"assay": "Permeability from apical to basolateral side of human Caco-2 cells", "assay_type": "ADME, cell-based", "conditions": "read-out: permeability"}, "[21]": {"assay": "Permeability from basolateral to apical side of human Caco-2 cells", "assay_type": "ADME, cell-based", "conditions": "read-out: permeability"}, "[22]": {"assay": "Solubility in simulated gastric fluid", "assay_type": "physicochemical"}, "[23]": {"assay": "Solubility in water", "assay_type": "physicochemical"}, "Cytochrome P450 3A4": {"biological_target": "Cytochrome P450 3A4 (Homo sapiens, UniProt P08684)", "sequence (P08684 whole entry)": "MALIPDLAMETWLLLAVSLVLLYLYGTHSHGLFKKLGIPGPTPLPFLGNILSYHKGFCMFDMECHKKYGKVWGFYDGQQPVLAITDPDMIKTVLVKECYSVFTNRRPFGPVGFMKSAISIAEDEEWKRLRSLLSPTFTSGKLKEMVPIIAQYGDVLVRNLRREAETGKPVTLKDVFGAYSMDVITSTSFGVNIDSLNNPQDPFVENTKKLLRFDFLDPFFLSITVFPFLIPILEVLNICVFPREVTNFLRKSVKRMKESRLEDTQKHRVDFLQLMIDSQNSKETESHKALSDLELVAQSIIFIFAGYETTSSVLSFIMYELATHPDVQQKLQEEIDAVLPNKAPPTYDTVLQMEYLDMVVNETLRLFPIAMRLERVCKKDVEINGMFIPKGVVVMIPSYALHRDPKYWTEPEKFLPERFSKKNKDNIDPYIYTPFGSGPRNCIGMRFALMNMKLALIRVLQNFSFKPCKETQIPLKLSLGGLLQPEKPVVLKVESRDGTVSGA", "assay": "Inhibition of CYP3A4 at 10 uM", "assay_type": "ADME"}, "Cytochrome P450 2D6": {"biological_target": "Cytochrome P450 2D6 (Homo sapiens, UniProt P10635)", "sequence (P10635 whole entry)": "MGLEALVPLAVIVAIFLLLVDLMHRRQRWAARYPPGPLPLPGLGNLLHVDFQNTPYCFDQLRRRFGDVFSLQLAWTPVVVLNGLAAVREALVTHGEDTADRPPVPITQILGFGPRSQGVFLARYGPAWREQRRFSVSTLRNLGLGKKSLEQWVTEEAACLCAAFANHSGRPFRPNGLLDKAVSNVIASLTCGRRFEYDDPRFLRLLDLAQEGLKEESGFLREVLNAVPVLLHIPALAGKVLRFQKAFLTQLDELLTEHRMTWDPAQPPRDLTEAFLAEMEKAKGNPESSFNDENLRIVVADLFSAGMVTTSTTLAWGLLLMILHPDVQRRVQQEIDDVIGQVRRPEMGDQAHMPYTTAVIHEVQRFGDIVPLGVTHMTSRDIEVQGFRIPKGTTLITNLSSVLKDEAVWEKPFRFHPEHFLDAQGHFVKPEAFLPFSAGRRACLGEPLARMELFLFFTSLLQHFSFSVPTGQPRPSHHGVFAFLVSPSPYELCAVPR", "assay": "Inhibition of CYP2D6 at 10 uM", "assay_type": "ADME"}, "Cytochrome P450 2C9": {"biological_target": "Cytochrome P450 2C9 (Homo sapiens, UniProt P11712)", "sequence (P11712 whole entry)": "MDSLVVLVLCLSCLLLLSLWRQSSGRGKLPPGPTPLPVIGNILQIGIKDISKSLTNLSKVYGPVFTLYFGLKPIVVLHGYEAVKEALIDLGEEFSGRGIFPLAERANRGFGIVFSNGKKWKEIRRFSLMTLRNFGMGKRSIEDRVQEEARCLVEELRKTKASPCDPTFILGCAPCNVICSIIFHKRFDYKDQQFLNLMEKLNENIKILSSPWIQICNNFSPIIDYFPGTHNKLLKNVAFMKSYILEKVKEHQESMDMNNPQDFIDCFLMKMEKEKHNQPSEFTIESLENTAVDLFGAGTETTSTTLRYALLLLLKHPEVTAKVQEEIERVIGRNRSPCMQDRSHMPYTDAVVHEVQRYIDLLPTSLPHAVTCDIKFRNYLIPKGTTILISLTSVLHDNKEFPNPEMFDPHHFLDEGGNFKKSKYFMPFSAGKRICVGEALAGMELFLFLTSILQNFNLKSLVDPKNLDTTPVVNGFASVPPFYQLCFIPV", "assay": "Inhibition of CYP2C9 at 10 uM", "assay_type": "ADME"}, "Rattus norvegicus [24]": {"test_system": "Rattus norvegicus", "assay": "Ex vivo receptor occupancy of histamine H3 receptor in Wistar rat brain at 3 mg/kg, po after 30 mins by [3H]R-alpha-methylhistamine bingind autoradiography", "assay_type": "functional"}, "[25]": {"assay": "Plasma concentration in Wistar rat at 3 mg/kg, po after 30 mins", "assay_type": "ADME, organism-based", "design": "dose 3 mg/kg, route oral", "conditions": "read-out: Drug uptake"}, "[26]": {"assay": "Fraction unbound in rat plasma", "assay_type": "ADME, cell-free"}, "Rattus norvegicus [27]": {"test_system": "Rattus norvegicus", "assay": "Increase of histamine release in rat frontal cortex at 0.3 to 3 mg/kg, sc measured up to 300 mins", "assay_type": "functional, organism-based"}, "Brain": {"test_system": "Brain", "assay": "Drug level in rat brain at 3 mg/kg, sc", "assay_type": "ADME, organism-based", "design": "dose 3 mg/kg, route subcutaneous", "conditions": "in vivo, read-out: Drug uptake"}, "Plasma": {"test_system": "Plasma", "assay": "Plasma concentration in rat at 3 mg/kg, sc", "assay_type": "ADME, organism-based", "design": "dose 3 mg/kg, route subcutaneous", "conditions": "in vivo, read-out: Drug uptake"}, "Rattus norvegicus [28]": {"test_system": "Rattus norvegicus", "assay": "Increase of wake duration in rat at 10 mg/kg, sc", "assay_type": "functional, organism-based", "design": "dose 10 mg/kg"}, "Rattus norvegicus [29]": {"test_system": "Rattus norvegicus", "assay": "Increase of wake duration in rat at 10 mg/kg, s.c."}}, "note": "The source made the active and inactive calls. The rule behind the calls is not given here.", "data": [{"smiles": "O=C(c1ccc(Oc2ccc(F)cc2)nc1)N1CCCN(C2CCC2)CC1", "note": "[JNJ-39220675]", "values": [{"measurement": "remaining at 0.5 h", "setting": "[1]", "result": 63, "unit": "%"}, {"measurement": "remaining at 0.5 h", "setting": "[2]", "result": 87, "unit": "%"}, {"measurement": "Activity", "setting": "Rattus norvegicus [3]", "result": 94, "unit": "%"}, {"measurement": "concentration at 1 h", "setting": "[4]", "result": 2650, "unit": "nM"}, {"measurement": "concentration at 1 h", "setting": "[5]", "result": 1480, "unit": "nM"}, {"measurement": "clearance", "setting": "[6]", "result": 49, "unit": "mL/min/kg"}, {"measurement": "Vd", "setting": "[7]", "result": 3.5, "unit": "L/kg"}, {"measurement": "half-life", "setting": "[8]", "result": 1.2, "unit": "h"}, {"measurement": "bioavailability", "setting": "[9]", "result": 50, "unit": "%"}, {"measurement": "clearance", "setting": "[10]", "result": 35, "unit": "mL/min/kg"}, {"measurement": "Vd", "setting": "[11]", "result": 7.2, "unit": "L/kg"}, {"measurement": "half-life", "setting": "[12]", "result": 2.6, "unit": "h"}, {"measurement": "bioavailability", "setting": "[13]", "result": 28, "unit": "%"}, {"measurement": "clearance", "setting": "[14]", "result": 94, "unit": "mL/min/kg"}, {"measurement": "Vd", "setting": "[15]", "result": 8.7, "unit": "L/kg"}, {"measurement": "half-life", "setting": "[16]", "result": 1.1, "unit": "h"}, {"measurement": "bioavailability", "setting": "[17]", "result": 28, "unit": "%"}, {"measurement": "IC50", "setting": "[18]", "result": "> 10", "unit": "µM"}, {"measurement": "inhibition at 10 µM", "setting": "hERG (KCNH2)", "result": 0, "unit": "%"}, {"measurement": "IC50", "setting": "[19]", "result": 3.5, "unit": "µM"}, {"measurement": "Papp A→B", "setting": "[20]", "result": 78, "unit": "×10⁻⁶ cm/s"}, {"measurement": "Papp B→A", "setting": "[21]", "result": 36, "unit": "×10⁻⁶ cm/s"}, {"measurement": "solubility", "setting": "[22]", "result": "> 5000", "unit": "µg/mL"}, {"measurement": "solubility", "setting": "[23]", "result": "> 5000", "unit": "µg/mL"}, {"measurement": "Activity", "setting": "Cytochrome P450 3A4", "result": "Not Active"}, {"measurement": "Activity", "setting": "Cytochrome P450 2D6", "result": "Not Active"}, {"measurement": "Activity", "setting": "Cytochrome P450 2C9", "result": "Not Active"}, {"measurement": "Activity", "setting": "Rattus norvegicus [24]", "result": 90, "unit": "%"}, {"measurement": "concentration at 0.5 h", "setting": "[25]", "result": 150, "unit": "ng/mL"}, {"measurement": "fraction unbound", "setting": "[26]", "result": 0.15}, {"measurement": "Activity", "setting": "Rattus norvegicus [27]", "result": "Active"}, {"measurement": "concentration", "setting": "Brain", "result": 956, "unit": "nM"}, {"measurement": "concentration", "setting": "Plasma", "result": 257, "unit": "nM"}, {"measurement": "Activity", "setting": "Rattus norvegicus [28]", "result": "Active"}, {"measurement": "Activity", "setting": "Rattus norvegicus [29]", "result": "Active"}]}]}
